Assay results: patent US5739169A, “Aromatic compounds for inhibiting immune response” (Procept, Incorporated, priority 1996, dated 1998)
Values after ≈ are worked out from the molar mass of the structure shown.

Tested on: PBLs
Assay: Mixed Lymphocyte Reactions (MLR) Assay
Assay type: cell-based
Conditions: Homo sapiens, 3H-thymidine pulse on day 5, harvest 16 hours later
Method: Mixed Lymphocyte Reactions (MLR) Assay
Blood samples were drawn from two donors and the lymphocytes were separated out by Ficoll gradient by standard procedures known in the art. The isolated lymphocytes from done 1 were left untreated and the cells from donor 2 where suspended in Hanks Balanced Salt Solution at 10^7 /ml and treated with 50 micrograms/ml mitomycin C for 30 minutes at 37° C.
The PBLs were cultured in RPMI 1640 medium containing 5% human AB serum, glutamine (2 mM), penicillin/streptomycin (50 micrograms/ml / 50 micrograms/ml), sodium pyruvate (1 mM) and HEPES buffer (10 mM). For assay purposes, 10^5 PBLs from each donor were added to each well of a 96-well plate in a total volume of 200 microliters along with various dilutions of test compound.
The cultures were pulsed with 1 microCurie ^3 H-thymidine on day 5 and harvested 16 hours later onto a glass fiber filter. Thymidine incorporation was measured by liquid scintillation counting using a Beta plate counter. The IC50 represents the amount of compound necessary to inhibit 50 % of the thymidine incorporation.

Row | SMILES | IC50 [µg/mL]
1 | Nc1cccc(C(=O)c2cccc(Nc3ccccc3C(=O)O)c2)c1 [PRO4919] | 5 (≈ 15 µM)

Tested on: human transformed T cell line, H9
Assay: H9 proliferation Assay
Assay type: cell-based
Conditions: 3 days culture, 3H-thymidine pulse on day 3, harvest 16 hours later
Method: The human transformed T cell line, H9 (ATCC Rockville, Md.), was cultured at 3000/well in RPMI 1640 medium supplemented with 5 % human AB serum, glutamine (2 mM), penicillin/streptomycin (50 U/ml, 50 micrograms/ml), sodium pyruvate (1 mM), HEPES (10 mM), and non-essential amino acids (1X) in a total of 200 microliter/well in a 96 well plate. The H9 cells were cultured with and without various dilutions of test compound for 3 days.
The cells were pulsed on day 3 with 1 microCurie/well of ^3 H-thymidine using a standard procedure known in the art. The cells were then harvested 16 hours later onto glass fiber filters using a TOMTEC cell harvester. Cellular proliferation was assessed by thymidine incorporation and measured by liquid scintillation counting using a Beta plate counter (Pharmacia, Inc., Piscataway, N.J.). The IC 50 represents the amount of compound necessary to inhibit 50% of the thymidine incorporation.

Row | SMILES | IC50 [µg/mL]
2 | COc1cc(-c2ccc([N+](=O)[O-])c(OC)c2)ccc1Nc1ccccc1C(=O)O [PRO4636] | 3.2 (≈ 8.11 µM)

Tested on: human peripheral blood lymphocyte (PBL)
Assay: cells
Assay type: cell-based
Conditions: not given

Row | SMILES | IC50 [µg/mL]
3 | COc1cccc(-c2ccc(Nc3ccccc3C(=O)O)c(OC)c2)c1 [PRO4403] | 0.012 (≈ 0.0343 µM)
4 | COc1cc(-c2ccc(N(C)C)c(OC)c2)ccc1Nc1ccccc1C(=O)O [PRO6365] | 0.194 (≈ 0.494 µM)
5 | CNc1ccc(-c2ccc(Nc3ccccc3C(=O)O)c(OC)c2)cc1OC [PRO6370] | 0.01 (≈ 0.0264 µM)
6 | COc1cc(-c2ccc([N+](=O)[O-])c(OC)c2)ccc1Nc1ccccc1-c1nn[nH]n1 [PRO5106] | > 1
7 | Nc1ccc(C(=O)c2ccc(Nc3ccccc3C(=O)O)cc2)cc1 [PRO4708] | 0.345 (≈ 1.04 µM)
8 | Nc1ccc(-c2ccc(Nc3ccccc3C(=O)O)cc2)cc1 [PRO4707] | 0.086 (≈ 0.283 µM)
9 | O=C(O)c1ccccc1Nc1ccc(-c2ccccc2)cc1 [PRO4917] | 0.296 (≈ 1.02 µM)
10 | COc1cc(-c2ccc(Nc3ccccc3-c3nn[nH]n3)c(OC)c2)ccc1N [PRO5105] | > 1
11 | COC(=O)c1ccccc1Nc1ccc(-c2ccc(N)c(OC)c2)cc1OC [PRO5021] | 0.037 (≈ 0.0978 µM)
12 | COc1cc(-c2ccc(Nc3ccccc3C(=O)O)c(OC)c2)ccc1NC(=O)OC(C)(C)C [PRO4323] | 0.015 (≈ 0.0323 µM)
13 | CC(=O)Nc1ccc(-c2ccc(Nc3ccccc3C(=O)O)cc2)cc1 [PRO5023] | > 1
14 | COc1cc(-c2ccc(Nc3ccccc3C(=O)O)c(OC)c2)ccc1NC(C)=O [PRO4379] | 0.133 (≈ 0.327 µM)
15 | COc1cc(-c2ccc(Nc3ccccc3C(=O)O)c(OC)c2)ccc1Br [PRO4402] | 0.03 (≈ 0.07 µM)
16 | COc1cc(-c2ccc(Nc3ccccc3C(=O)O)c(OC)c2)ccc1N [PRO3249] | 0.005 (≈ 0.0137 µM)
